Entries after “also recorded” stand apart in the source; their conditions may differ. Counter-ions that a name gives are not always drawn.
What was measured:
mice [1] = test: CNS-activity and acute toxicity test; settings: mice, intraperitoneal
Method: (§1) Adult male NMRI mice (3 months old, weighing 35–40 g) from Janvier labs (Le Genest-Saint-Isle, France) were used to perform experiments. Mice were housed by ten in standard polycarbonate cages in standard controlled conditions (22 ± 2°C, 55 ± 10% humidity) with a reversed 12 h light/dark cycle (light on at 7 pm). Food and water were available ad libitum in the home cage.
(§2) The approximate DL50 of the compounds were also calculated through the quantification of mortality after 24 h. Amphetamine (2 mg/kg), chlorpromazine (10 mg/kg) were used as a stimulant and depressive references, respectively.
(§3) Amphetamine, (+)-α-Methylphenethylamine hemisulfate, chlorpromazine hydrochloride, imipramine hydrochloride and scopolamine hydrobromide were purchased from Sigma (France). All those pharmacological compounds were dissolved in NaCl 0.9% as the vehicle were administered IP 30 min before tests, except scopolamine which was subcutaneously administered 20 min before spontaneous alternation test.

(h)5-HT4(a)R = target: T1, (h)5-HT4(a)R (Homo sapiens, UniProt Q13639); test: 5-HT4R-induced cAMP production in transfected COS-7 cells; assay type: cell-based
T1 construct: HA; expressed in transfected cells; host or cells: COS-7 cells, transient electroporation
Method: (§4) COS-7 cells were grown in Dulbecco’s modified Eagle medium (DMEM) supplemented with 10% dialyzed fetal calf serum (dFCS) and antibiotics. Cells were transiently transfected by electroporation with plasmids encoding HA-tagged 5-HT4R (100 ng/10^6 cells) or HA-tagged 5-HT6R (70 ng/10^6 cells or 300 ng/10^6 cells), then seeded in 96-well plates (16,000 cells/well).
After 10 min, cells were then lysed by addition of the same volume of Triton-X100 (0.1%).
(§5) Quantification of cAMP production was performed by HTRF® by using the cAMP Dynamic kit (Cisbio Bioassays) according to the manufacturer’s instructions.

mice [2] = test: Locomotor activity (actimeter); assay type: in vivo; settings: IP 30 min before test, 1, 3 and 10 mg/kg, 30 min recording
Method: as §1, §3

Human 5-HT4R = target: T2, Human 5-HT4R (Homo sapiens, UniProt Q13639); test: [3H]-GR113808 competition binding on 5-HT4(b) membrane preparations; settings: (h)5-HT4R Ki, n = 3; Ki ± SD
T2 construct: purchased Eurofins HTS110M
Method: At the end of the incubation, homogenates were filtered through Whatman GF/C filters (Alpha Biotech) presoaked with 0.5% polyethylenimine using a Brandel cell harvester. Filters were subsequently washed three times with 1 mL of ice-cold 25 mM Tris buffer (pH 7.4, 4°C). Non-specific binding was evaluated in parallel in the presence of 30 μM serotonin.
(§6) For some of these compounds, affinity constants were calculated from five-point inhibition curves using the GraphPad Prism 6 software and expressed as Ki ± SD.

[3] = CNS-activity and acute toxicity test; settings: male, NMRI, mouse, in vivo, ip
Method: as §1, §2, §3

(h)5-HT6R [4] = target: T3, (h)5-HT6R (Homo sapiens, UniProt P50406); test: Blockade of the 5-HT6R-induced cAMP production in transfected COS-7 cells; assay type: cell-based; settings: for (h)5-HT6R % control antagonist response: SB271046 as control 5-HT6R antagonist, n = 2
T3 construct: HA; expressed in transfected cells; host or cells: COS-7 cells, transient electroporation
Method: as §4
Blockade of the 5-HT6R-induced cAMP production: 24 h after transfection, cells were exposed to the indicated concentrations of 5-HT6R ligands at 37°C in 50 μL of HBS. […] After 10 min at 37°C, cells were then lysed by addition of 100 μL of Triton-X100 (0.1%).
as §5

mice [5] = test: Spatial working memory: scopolamine-induced deficit of spontaneous alternation in the Y maze; assay type: in vivo, NMRI mice; settings: IP 30 min before test, 0.3, 1, 3 mg/kg, scopolamine 0.5 mg/kg SC, effect at doses starting from 0.3 mg/kg
Method: as §1
An arm entry was scored when all four feet crossed into the arm. An alternation was defined as entries into all three arms on a consecutive occasion.
as §3

[6] = target: T4, AChE from human erythrocytes (Homo sapiens, UniProt P22303); test: biochemical; settings: n = 2; read-out: (h)AChE IC50
T4 construct: AChE from human erythrocytes; purchased Sigma Aldrich; host or cells: human erythrocytes (natural source)
Method: Acetylthiocholine iodide and 5,5-dithiobis-(2-nitrobenzoic) acid (DTNB) were purchased from Sigma Aldrich. AChE from human erythrocytes (buffered aqueous solution, ≥500 units/mg protein (BCA), Sigma Aldrich) was diluted in 20 mM HEPES buffer pH 8, 0.1% Triton X-100 such as to have enzyme solution with 0.25 unit/mL enzyme activity. In the procedure, 100 μL of 0.3 mM DTNB dissolved in phosphate buffer pH 7.4 was added into the 96-well plate followed by 50 μL of test compound solution and 50 μL of enzyme (0.05 U final). After 5 min of preincubation at 25°C, the reaction was then initiated by the injection of 50 μL of 10 mM acetylthiocholine iodide solution. […] Assays were performed with a blank containing all components except acetylthiocholine, in order to account for non-enzymatic reaction. The reaction slopes were compared and the percent inhibition due to the presence of test compounds was calculated by the following expression: 100 − (vi/v0 × 100) where vi is the rate calculated in the presence of inhibitor and v0 is the enzyme activity.

human 5-HT6 receptors = target: T5, human 5-HT6 receptors (Homo sapiens, UniProt P50406); test: [3H]-LSD competition binding on membranes of HEK-293 cells expressing human 5-HT6 receptors
T5 construct: purchased Perkin Elmer RBHS6M; host or cells: HEK-293 cells, transient expression (membranes)
Method: Drugs were evaluated through their possibility to compete for the binding of [^3H]-LSD on membranes of HEK-293 cells transiently expressing the human 5-HT6 receptors (ref. RBHS6M, Perkin Elmer). […] At the end of the incubation, the homogenates were then filtered through Whatman GF/C filters and washed five times with ice-cold 25 mM Tris-HCl buffer. Non-specific binding was evaluated in the presence of 100 μM serotonin. Radioactivity associated to proteins was then quantified and expressed as the percentage of inhibition of the drugs under study.
as §6

(h)5-HT6R [7] = target: T3, (h)5-HT6R; test: Reversion of the basal 5-HT6R-induced cAMP production (constitutive activity) in COS-7 cells; assay type: cell-based; settings: for cAMP production in the absence of agonist (inverse agonist activity): 10^−4M, absence of 5-HT; for (h)5-HT6R Profile: cAMP
Method: as §4
Reversion of the basal 5-HT6R-induced cAMP production: the 5-HT6R expression was augmented by transfection of higher quantities of cDNA (300 ng/10^6 cells) to increase the basal cAMP production linked to the constitutive activity of the receptor. […] This experiment is performed in the absence of 5-HT. After 10 min at 37°C, cells were then lysed by addition of 100 μL of Triton-X100 (0.1%).
as §5

T1 sequence (Q13639 1-387 isoform Q13639-2): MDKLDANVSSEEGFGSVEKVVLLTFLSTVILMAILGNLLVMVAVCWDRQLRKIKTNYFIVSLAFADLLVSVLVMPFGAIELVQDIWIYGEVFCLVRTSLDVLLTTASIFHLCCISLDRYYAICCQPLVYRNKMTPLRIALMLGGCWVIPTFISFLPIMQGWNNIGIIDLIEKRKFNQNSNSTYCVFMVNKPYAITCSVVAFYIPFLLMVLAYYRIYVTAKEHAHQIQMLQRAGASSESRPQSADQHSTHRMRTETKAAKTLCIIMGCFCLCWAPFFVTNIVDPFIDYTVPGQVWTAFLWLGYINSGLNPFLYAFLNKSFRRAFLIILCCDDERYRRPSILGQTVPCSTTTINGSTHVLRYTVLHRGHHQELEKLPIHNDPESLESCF
T3 sequence (P50406 whole entry): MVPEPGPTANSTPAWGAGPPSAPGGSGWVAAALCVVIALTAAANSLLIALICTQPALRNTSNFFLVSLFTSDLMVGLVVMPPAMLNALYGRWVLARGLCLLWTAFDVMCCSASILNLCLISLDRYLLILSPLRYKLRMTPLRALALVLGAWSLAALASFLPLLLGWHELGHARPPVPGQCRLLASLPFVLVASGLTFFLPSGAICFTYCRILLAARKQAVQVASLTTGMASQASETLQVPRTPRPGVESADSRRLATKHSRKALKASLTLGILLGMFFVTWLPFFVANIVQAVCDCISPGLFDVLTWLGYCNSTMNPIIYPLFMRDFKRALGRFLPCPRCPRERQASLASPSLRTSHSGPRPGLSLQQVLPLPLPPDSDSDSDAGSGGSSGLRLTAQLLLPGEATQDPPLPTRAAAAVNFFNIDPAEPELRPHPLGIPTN
T5 sequence (P50406 whole entry): as above
T2 sequence (Q13639 whole entry): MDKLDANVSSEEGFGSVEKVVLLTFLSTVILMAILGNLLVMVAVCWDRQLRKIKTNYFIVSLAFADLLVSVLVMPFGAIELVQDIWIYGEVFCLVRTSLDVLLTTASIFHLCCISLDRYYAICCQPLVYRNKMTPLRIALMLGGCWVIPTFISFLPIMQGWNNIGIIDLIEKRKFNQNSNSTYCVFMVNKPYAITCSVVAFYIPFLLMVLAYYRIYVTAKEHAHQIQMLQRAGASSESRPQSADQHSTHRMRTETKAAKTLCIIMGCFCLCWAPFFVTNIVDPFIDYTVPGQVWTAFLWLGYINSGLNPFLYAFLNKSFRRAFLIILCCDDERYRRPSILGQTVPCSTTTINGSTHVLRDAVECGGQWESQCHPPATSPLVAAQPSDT
T4 sequence (P22303 other isoform, or with tags, fused parts or gaps): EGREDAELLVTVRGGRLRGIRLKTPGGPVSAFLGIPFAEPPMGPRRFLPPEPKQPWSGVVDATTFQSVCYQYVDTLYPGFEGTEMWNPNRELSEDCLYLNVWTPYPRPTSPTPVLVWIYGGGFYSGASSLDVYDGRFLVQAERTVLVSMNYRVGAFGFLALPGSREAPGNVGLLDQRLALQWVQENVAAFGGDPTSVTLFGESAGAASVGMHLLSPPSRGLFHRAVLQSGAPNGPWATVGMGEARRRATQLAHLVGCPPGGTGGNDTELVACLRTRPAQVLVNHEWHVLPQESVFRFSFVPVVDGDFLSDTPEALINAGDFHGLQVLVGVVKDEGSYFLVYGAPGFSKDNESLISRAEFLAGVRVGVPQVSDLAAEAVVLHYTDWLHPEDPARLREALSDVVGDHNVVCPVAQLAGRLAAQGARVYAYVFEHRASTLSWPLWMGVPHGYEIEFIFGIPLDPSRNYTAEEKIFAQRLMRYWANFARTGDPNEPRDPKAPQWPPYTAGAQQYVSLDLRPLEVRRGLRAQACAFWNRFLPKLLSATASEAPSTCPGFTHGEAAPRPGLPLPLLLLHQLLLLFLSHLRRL

For `C[C@H](N)Cc1ccccc1` [Amphetamine, (+)-α-Methylphenethylamine hemisulfate], the “Symptoms (subtoxic doses)” value (mice [1]; 2 mg/kg, stimulant reference) was “Hyperactivity; also recorded: Exopthalmy; also recorded: Irritability”.
With `COc1cc(N)c(Cl)cc1C(=O)CCC1CCN(Cc2cccc(C)c2)CC1.O=C(O)/C=C/C(=O)O` [compound 10, 1-(4-Amino-5-chloro-2-methoxyphenyl)-3-(1-(3-methylbenzyl)piperidin-4-yl)propan-1-one fumaric acid salt] the EC50 ((h)5-HT4(a)R) was 20 nM, the “(h)5-HT4(a)R % control agonist response” value ((h)5-HT4(a)R; 5-HT as control 5-HT4R agonist, n = 2) was 59.8 ± 2.5 n = 2% and the “(h)5-HT4(a)R Profile” value ((h)5-HT4(a)R; cAMP, COS-7 cells) was “Partial agonist”. The “Effect on spontaneous locomotor activity” value (mice [2]) was “did neither modify spontaneous locomotor activity”, the Ki (Human 5-HT4R) was 210 ± 43 nM and the “Symptoms (subtoxic doses)” value (mice [1]; 1–10–100 mg/kg) was “did not show any deleterious signs; also recorded: No symptoms”. The LD50 at 24 h [3] was greater than 100 mg/kg, the IC50 ((h)5-HT6R [4]) was 10 µM and the “(h)5-HT6R % control antagonist response” value ((h)5-HT6R [4]) was 93.4 ± 1.8 n = 2%. For the same compound, the “Effect on scopolamine-induced spontaneous alternation deficit” value (mice [5]) was “anti-amnesic effect was observed”, the IC50 [6] was 33.7 ± 1.7 nM and the Ki (human 5-HT6 receptors; (h)5-HT6R Ki, n = 3, Ki ± SD) was 219 ± 42 nM. The “cAMP production in the absence of agonist (inverse agonist activity)” value ((h)5-HT6R [7]) was “decreased cAMP production below the basal” and the “(h)5-HT6R Profile” value ((h)5-HT6R [7]) was “Inverse agonist”.
In the case of `Fc1ccc2c(CCNCc3cccc(OCC(F)(F)C(F)F)c3)c[nH]c2c1` [compound 2, idalopirdine, reference compound], the “(h)5-HT6R % control antagonist response” value ((h)5-HT6R [4]) is reported as 101.2 ± 3.2 n = 2%, the inhibition (human 5-HT6 receptors; read-out: (h)5-HT6R % inhibition at 10^−8M, 10^−8M, 2.5 nM [3H]-LSD) is reported as 88% and the “cAMP production in the absence of agonist (inverse agonist activity)” value ((h)5-HT6R [7]) is reported as “decreased cAMP production below the basal”. The “(h)5-HT6R Profile” value ((h)5-HT6R [7]) was “Inverse agonist”.
In the case of `CN(C)CCCN1c2ccccc2Sc2ccc(Cl)cc21` [Chlorpromazine, chlorpromazine hydrochloride], the “Symptoms (subtoxic doses)” value (mice [1]; 10 mg/kg, depressive reference) is reported as “Hypoactivity; also recorded: Ataxia; also recorded: Sleep”.

Source: article PMC6611404 (Frontiers in Aging Neuroscience, 2019)
